Test results reported in paper PMC4331650 (Biochimica et Biophysica Acta, 2014).
Substitutions are numbered along the chain they refer to. “And” between values parts separate entries of the source, which are not always exact repeats. Equal entries are not always repeated.

How the values were obtained:
N257A CLC-Ka [1] = target: T1, N257A CLC-Ka (Homo sapiens, UniProt P51800, N257A); assay type: cell-based; details: 100 μM CPAint; negative voltages
T1 sequence (P51800 1-687 N257A): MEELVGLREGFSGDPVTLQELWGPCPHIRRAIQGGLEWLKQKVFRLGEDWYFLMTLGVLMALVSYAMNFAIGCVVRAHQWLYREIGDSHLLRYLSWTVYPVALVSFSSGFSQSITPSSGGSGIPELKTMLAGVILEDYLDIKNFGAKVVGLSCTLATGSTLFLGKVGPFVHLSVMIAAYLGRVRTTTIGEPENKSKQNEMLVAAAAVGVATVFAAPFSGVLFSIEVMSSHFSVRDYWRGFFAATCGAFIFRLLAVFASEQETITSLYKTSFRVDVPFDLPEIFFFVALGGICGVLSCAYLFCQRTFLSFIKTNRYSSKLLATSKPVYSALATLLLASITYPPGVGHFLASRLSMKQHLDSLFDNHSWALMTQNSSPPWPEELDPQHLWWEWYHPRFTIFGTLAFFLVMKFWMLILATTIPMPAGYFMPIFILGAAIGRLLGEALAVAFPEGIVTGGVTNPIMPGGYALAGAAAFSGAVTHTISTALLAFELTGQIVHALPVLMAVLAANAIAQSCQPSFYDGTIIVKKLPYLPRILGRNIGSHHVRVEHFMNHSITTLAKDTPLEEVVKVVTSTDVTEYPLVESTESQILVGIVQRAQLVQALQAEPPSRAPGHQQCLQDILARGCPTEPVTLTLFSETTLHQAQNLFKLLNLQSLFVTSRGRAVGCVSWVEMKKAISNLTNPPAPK
T1 sequence (Q8WZ55 1-320 Y98A partner): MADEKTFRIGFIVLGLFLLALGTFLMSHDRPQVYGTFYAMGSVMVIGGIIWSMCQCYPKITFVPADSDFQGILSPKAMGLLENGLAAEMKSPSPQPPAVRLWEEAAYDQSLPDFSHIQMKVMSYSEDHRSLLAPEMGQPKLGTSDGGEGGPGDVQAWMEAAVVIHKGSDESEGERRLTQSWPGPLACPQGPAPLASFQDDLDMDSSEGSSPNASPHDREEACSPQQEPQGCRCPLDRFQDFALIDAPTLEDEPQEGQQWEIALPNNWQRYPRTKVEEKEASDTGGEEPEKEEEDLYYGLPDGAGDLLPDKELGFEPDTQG

N257A CLC-Ka [2] = target: T1, N257A CLC-Ka; assay type: cell-based; details: 50 μM CPA, intracellular; −100 mV
CLC-1 = details: negative potentials; cited from earlier work
CLC-0 = details: negative potentials; cited from earlier work
WT CLC-Ka = target: T2, WT CLC-Ka (Homo sapiens, UniProt P51800); details: Xenopus oocytes; cited from earlier work
T2 sequence (P51800 1-687): T1 sequence (P51800 1-687 N257A) with A257N
T2 sequence (Q8WZ55 1-320 Y98A partner): T1 sequence (Q8WZ55 1-320 Y98A partner)

| SMILES | effect of CPA on currents (N257A CLC-Ka [1]) | amplitude of predominant conductance level in the presence of CPA (N257A CLC-Ka [2]) | effect on CLC-1 currents (CLC-1) | effect on CLC-0 currents (CLC-0) | effect on CLC-Ka (WT CLC-Ka) |
| --- | --- | --- | --- | --- | --- |
| O=C(O)COc1ccc(Cl)cc1 [CPA, p-chlorophenoxy-acetic acid] | inhibits | ~ 0.66 pA and 0.66 pA | block | block |  |
| O=S(=O)(O)c1cc(N=C=S)ccc1C=Cc1ccc(N=C=S)cc1S(=O)(=O)O [DIDS] |  |  |  |  | inhibit |
| O=C(O)c1ccccc1Nc1cccc(C(F)(F)F)c1 [flufenamic acid] |  |  |  |  | inhibit |
